One series addresses DksA (Salmonella typhimurium, UniProt P0A1G5). The experiment in a line: DksA-dependent livJ in vitro transcription. Format: biochemical. Particulars: livJ promoter; for IVT: concentration showing activity. The protocol: To measure the potency of a compound in inhibition of DksA biological function, rpsMtranscripts in vitro was determined by non-radioactive in vitro transcription reactions with qPCR analysis with divergent compounds. Briefly, 5 nM pTIM-rpsMplasmid was mixed with […] of compounds in 10 μl reaction buffer (40 mM HEPES [pH 7.4], 2 mM MgCl2, 60 mM potassium glutamate, 0.05% NP-40, 200 μM ATP, 200 μM GTP, 200 μM CTP, 200 μM UTP, and 5 nM E. coli RNA polymerase holoenzyme (NEB, Ipswich, MA) with 5 μM DksA. The in vitro transcription was carried out at 37° C. for 10 min, and then terminated at 70° C. for 10 min. To remove template DNA after treated with DNaseI, DNA-free DNA Removal kit (ThermoFisher) was used according to manufacturer's direction. The resulting materials were used as templates to generate cDNA with 100 U MMLV reverse transcriptase (Promega), 0.45 μM gene specific primer, and 20 U RNase inhibitor (Promega). The amount of cDNA synthesized for 1 h at 42° C. was quantified by real-time PCR (qRT-PCR). The copy number of specific transcripts was calculated to the standard curve generated with known gene copy concentrations. The IC50 is the concentration at which the curve passes through the 50% inhibition level. Standard deviation was calculated from 3 independent experiments.
The compounds were initially tested at 0.1 μM and 1 μM using as a target the promoter of the livJ gene that encodes a transporter of branch-chain amino acids (Table 4).

Another series deals with Salmonella strain 14028s. Kind of series: Minimum inhibitory concentration in EG minimal media. Format: cell-based, Salmonella Typhimurium. Particulars: EG minimal media, 37° C., 18 h. The method, then:
DksA controls transcription of metabolic and virulence genes, allowing bacteria to both grow in minimum media and cause disease. Inhibition of bacterial growth in EG minimum media was used as an easy and reliable proxy of the DksA-dependent regulation of metabolism.
In a non-limiting example, wild-type Salmonella strain 14028s was grown overnight (18.5 h), and then diluted in EG minimal media to a density of about 10^5 CFU/mL. […] Each test tube was incubated at 37° C. with shaking for 18 h and bacterial growth was evaluated. The MIC value was determined as the lowest concentration of compound that inhibited growth.

A further series in a line: Compound solubility. In kind it is physicochemical. As to conditions: for Compound Solubility, 1 μM: solvent at 1 μM; for Compound Solubility, 10 μM: solvent at 10 μM; for Compound Solubility, 100 μM: solvent at 100 μM; for Compound Solubility, 1 mM: solvent at 1 mM; for Compound Solubility, 10 mM: solvent at 10 mM; for Compound Solubility, 16 mg/ml: solvent at 16 mg/ml.

Each structure is given as a SMILES string.

DksA, sequence (P0A1G5 whole entry): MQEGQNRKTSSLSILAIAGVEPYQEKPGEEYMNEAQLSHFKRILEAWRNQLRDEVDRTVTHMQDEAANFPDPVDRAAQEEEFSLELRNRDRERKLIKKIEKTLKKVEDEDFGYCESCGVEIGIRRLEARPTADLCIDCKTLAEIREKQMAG

As for `COc1ccc([C@@H](C)NC(=O)c2nc[nH]n2)cc1` [Compound 22, (R)-N-(1-(4-methoxyphenyl)ethyl)-1H-1,2,4-triazole-3-carboxamide], at DksA, the “In vitro transcription assay result, 0.1 μM” value is “no induction”; the “In vitro transcription assay result, 1 μM” value is recorded as “no induction”; the IVT came out at 0.1 µM. In addition, in the series on Salmonella strain 14028s, the “Growth in EG at concentration tested 1 μg/ml” value is “+”, the “Growth in EG at concentration tested 2 μg/ml” value is “+”, the “Growth in EG at concentration tested 4 μg/ml” value was “+” and the “Growth in EG at concentration tested 8 μg/ml” value was “+”. In addition, in the series on Salmonella strain 14028s, the “Growth in EG at concentration tested 16 μg/ml” value is listed as “+” and the “Growth in EG at concentration tested 32 μg/ml” value is “+”. Besides, in “Compound solubility”, the “Compound Solubility, 1 μM” value is “water”; the “Compound Solubility, 10 μM” value is on record as “water”; the “Compound Solubility, 100 μM” value is “water”; the “Compound Solubility, 1 mM” value is given as “water”. In addition, in “Compound solubility”, the “Compound Solubility, 10 mM” value was “water” and the “Compound Solubility, 16 mg/ml” value is listed as “DMSO”.

`O=C(Nc1cccc(OC(F)(F)F)c1)c1nc[nH]n1` [Compound 5, N-(3-(trifluoromethoxy)phenyl)-1H-1,2,4-triazole-3-carboxamide]: at DksA, the “In vitro transcription assay result, 0.1 μM” value was “no induction”; the “In vitro transcription assay result, 1 μM” value was “no induction”; the IVT was determined as 0.1 µM. In the series on Salmonella strain 14028s, the “Growth in EG at concentration tested 1 μg/ml” value is reported as “+”, the “Growth in EG at concentration tested 2 μg/ml” value was “+”, the “Growth in EG at concentration tested 4 μg/ml” value is given as “+” and the “Growth in EG at concentration tested 8 μg/ml” value is “+”. In addition, in the series on Salmonella strain 14028s, the “Growth in EG at concentration tested 16 μg/ml” value was “+” and the “Growth in EG at concentration tested 32 μg/ml” value was “+”. In the series “Compound solubility”, the “Compound Solubility, 1 μM” value is on record as “water”; the “Compound Solubility, 10 μM” value is reported as “water”; the “Compound Solubility, 100 μM” value was “water”; the “Compound Solubility, 1 mM” value is recorded as “water”. In addition, in “Compound solubility”, the “Compound Solubility, 10 mM” value is reported as “DMSO” and the “Compound Solubility, 16 mg/ml” value was “DMSO”.

With `C[C@@H](NC(=O)c1nc[nH]n1)c1ccccc1` [Compound 17, (R)-N-(1-phenylethyl)-1H-1,2,4-triazole-3-carboxamide], on DksA, the “In vitro transcription assay result, 0.1 μM” value is “no induction”; the “In vitro transcription assay result, 1 μM” value is recorded as “no induction”; the IVT came out at 0.1 µM. In the series on Salmonella strain 14028s, the “Growth in EG at concentration tested 1 μg/ml” value is “+”, the “Growth in EG at concentration tested 2 μg/ml” value was “+”, the “Growth in EG at concentration tested 4 μg/ml” value was “+” and the “Growth in EG at concentration tested 8 μg/ml” value is recorded as “+”. In addition, in the series with Salmonella strain 14028s, the “Growth in EG at concentration tested 16 μg/ml” value was “+” and the “Growth in EG at concentration tested 32 μg/ml” value is on record as “+”. Also, in the series “Compound solubility”, the “Compound Solubility, 1 μM” value is given as “water”; the “Compound Solubility, 10 μM” value is “water”; the “Compound Solubility, 100 μM” value is given as “water”; the “Compound Solubility, 1 mM” value is on record as “water”. For the same molecule, in the series “Compound solubility”, the “Compound Solubility, 10 mM” value is “water” and the “Compound Solubility, 16 mg/ml” value is recorded as “DMSO”.

As to `O=C(Nc1ccc(C(F)(F)F)cc1)c1nc[nH]n1` [Compound 11, N-(4-(trifluoromethyl)phenyl)-1H-1,2,4-triazole-3-carboxamide], on DksA, the “In vitro transcription assay result, 0.1 μM” value is recorded as “good repression”; the “In vitro transcription assay result, 1 μM” value was “good repression”; the IVT turned out to be 0.1 µM. Besides, in the series with Salmonella strain 14028s, the “Growth in EG at concentration tested 1 μg/ml” value is listed as “+”, the “Growth in EG at concentration tested 2 μg/ml” value is given as “+”, the “Growth in EG at concentration tested 4 μg/ml” value is given as “+” and the “Growth in EG at concentration tested 8 μg/ml” value is given as “+”. In addition, in the series on Salmonella strain 14028s, the “Growth in EG at concentration tested 16 μg/ml” value is listed as “+” and the “Growth in EG at concentration tested 32 μg/ml” value is reported as “+”. Besides, in the series “Compound solubility”, the “Compound Solubility, 1 μM” value is given as “water”; the “Compound Solubility, 10 μM” value is on record as “water”; the “Compound Solubility, 100 μM” value is on record as “water”; the “Compound Solubility, 1 mM” value is “DMSO”. Besides, in the series “Compound solubility”, the “Compound Solubility, 10 mM” value is given as “DMSO” and the “Compound Solubility, 16 mg/ml” value is recorded as “DMSO”.

These data come from patent US12043601B2, “N-substituted-1H-1,2,4-triazole-3-carboxamides, analogues thereof, and methods of treatment using same” (THE REGENTS OF THE UNIVERSITY OF COLORADO, priority 2018, dated 2024).
